Assays:
Conditions in all cases: Canis lupus familiaris
Canis familiaris [1] = test: Beta-adrenergic blocking activity in anesthetized dog, by the inhibition of isoproterenol -induced bronchodilatation after iv administration; format: functional
Canis familiaris [2] = test: Beta-adrenergic blocking activity in anesthetized dog, by the inhibition of isoproterenol -induced tachycardia after iv administration; format: functional
Canis familiaris [3] = test: Beta-adrenergic blocking activity in anesthetized dog, by the inhibition of isoproterenol -induced hypotension after iv administration; format: functional
Canis familiaris [4] = test: Beta-adrenergic blocking activity in anesthetized dog, by the inhibition of isoproterenol -induced hypotension after iv administration; No effect at dose up to 1 to 3 mg/kg iv; format: functional, organism-based
Canis familiaris [5] = test: Beta-adrenergic blocking activity in anesthetized dog, by the inhibition of isoproterenol -induced tachycardia after iv administration; No effect at dose up to 1 to 3 mg/kg iv; format: functional, organism-based
Canis familiaris [6] = test: Beta-adrenergic blocking activity in anesthetized dog, by the inhibition of isoproterenol -induced bronchodilatation after iv administration; No effect at dose up to 1 to 3 mg/kg iv; format: functional, organism-based
Canis familiaris [7] = test: Beta-adrenergic blocking activity in anesthetized dog, by the inhibition of isoproterenol -induced bronchodilatation after iv administration; No effect at dose up to 1 to 3 mg/kg; format: functional, organism-based

| SMILES | ED50 (Canis familiaris [1]) | ED50 (Canis familiaris [2]) | ED50 (Canis familiaris [3]) | ED50 (Canis familiaris [4]) | ED50 (Canis familiaris [5]) | ED50 (Canis familiaris [6]) | ED50 (Canis familiaris [7]) |
| --- | --- | --- | --- | --- | --- | --- | --- |
| CC(C)(C)NCC(O)COc1nsnc1NCCO (configuration not stated) | 5.4 µg/kg | 38.1 µg/kg | 19.9 µg/kg | – | – | – | – |
| CC(C)(C)NC[C@H](O)COc1nsnc1N1CCOCC1 [TIMOLOL] | 0.9 µg/kg | 5.5 µg/kg | 2.8 µg/kg | – | – | – | – |
| O=C(O)C(O)COc1nsnc1N1CCOCC1 (configuration not stated) | – | – | – | No effect | No effect | No effect | – |
| CC(C)(C)NCC(O)COc1nsnc1N(CCO)CC(=O)O (configuration not stated) | – | – | – | No effect | No effect | – | No effect |
